The target of test [1] is T1, Mtb-FbiD (Mycobacterium tuberculosis, UniProt P9WP83).
The target in test [2] is T2, Mtb-FbiB (Mycobacterium tuberculosis, UniProt P9WP79).
Test [3] has as its target T3, Mtb-FbiA (Mycobacterium tuberculosis, UniProt P9WP81).
Test [4] concerns the target T2, Mtb-FbiB. The source holds these as a separate data set.
Test [5] concerns the target T3, Mtb-FbiA. This is another data set of the same source.
The target of test [6] is T1, Mtb-FbiD. This is another data set of the same source.
For a further test, the target named is T4, Mj-CofC (Methanocaldococcus jannaschii, UniProt Q58297).
T4 construct: synthetic ORF in pYUB28b, expressed in E. coli, Ni-NTA and SEC
T4 sequence (Q58297 1-224): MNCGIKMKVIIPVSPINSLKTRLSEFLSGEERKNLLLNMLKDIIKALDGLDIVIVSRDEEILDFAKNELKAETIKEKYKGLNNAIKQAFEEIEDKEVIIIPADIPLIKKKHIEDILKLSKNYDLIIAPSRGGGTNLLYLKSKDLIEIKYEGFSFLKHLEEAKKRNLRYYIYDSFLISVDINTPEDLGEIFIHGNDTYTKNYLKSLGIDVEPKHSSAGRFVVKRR
Kind of test: coupled HPLC-MS assay with Mtb-FbiA. The test is classed as biochemical. To be noted: Mtb-FbiA present, 1 mM PEP, 2 mM GTP, 0.1 mM Fo, 5 mM MgCl2, pH 7.5, 37 °C.

The structures appear in SMILES notation.

Results on 5 molecules are retold here after PMC6450877, “A revised biosynthetic pathway for the cofactor F420 in prokaryotes” (Nature Communications, 2019).

T3 sequence (P9WP81 whole entry): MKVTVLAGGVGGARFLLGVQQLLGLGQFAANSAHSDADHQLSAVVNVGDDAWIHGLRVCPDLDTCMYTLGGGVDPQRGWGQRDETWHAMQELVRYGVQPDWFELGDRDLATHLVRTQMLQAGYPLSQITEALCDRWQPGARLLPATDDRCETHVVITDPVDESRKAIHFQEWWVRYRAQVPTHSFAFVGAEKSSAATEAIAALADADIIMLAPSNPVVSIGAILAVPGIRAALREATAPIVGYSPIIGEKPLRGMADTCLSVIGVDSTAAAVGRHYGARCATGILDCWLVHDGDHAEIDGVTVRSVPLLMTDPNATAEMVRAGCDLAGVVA
T2 sequence (P9WP79 whole entry): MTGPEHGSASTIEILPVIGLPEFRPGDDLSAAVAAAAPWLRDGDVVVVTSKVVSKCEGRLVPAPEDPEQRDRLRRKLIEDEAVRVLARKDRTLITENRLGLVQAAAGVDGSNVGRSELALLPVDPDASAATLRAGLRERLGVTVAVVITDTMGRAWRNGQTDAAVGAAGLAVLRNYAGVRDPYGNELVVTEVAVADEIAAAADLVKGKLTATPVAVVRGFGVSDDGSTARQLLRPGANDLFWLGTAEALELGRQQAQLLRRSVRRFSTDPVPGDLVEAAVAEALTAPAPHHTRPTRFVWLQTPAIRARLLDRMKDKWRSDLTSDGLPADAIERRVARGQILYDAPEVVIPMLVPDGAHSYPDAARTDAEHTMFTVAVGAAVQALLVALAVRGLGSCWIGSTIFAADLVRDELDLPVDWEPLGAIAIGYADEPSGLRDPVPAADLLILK
T1 sequence (P9WP83 whole entry): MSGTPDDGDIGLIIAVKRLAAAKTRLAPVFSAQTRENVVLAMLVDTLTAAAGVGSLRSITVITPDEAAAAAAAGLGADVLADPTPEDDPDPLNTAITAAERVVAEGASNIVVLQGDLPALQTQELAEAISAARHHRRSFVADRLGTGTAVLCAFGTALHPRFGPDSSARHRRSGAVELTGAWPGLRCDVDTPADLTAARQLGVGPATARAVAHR

`Nc1nc2c(ncn2[C@@H]2O[C@H](COP(=O)(O)OP(=O)(O)OP(=O)(O)O)[C@@H](O)[C@H]2O)c(=O)[nH]1` [GTP, guanosine-5ʹ-triphosphate]: on Mtb-FbiD [1], the “coupled HPLC-MS assay with FbiA” value is given as “Mtb-FbiD exclusively utilizes GTP to produce dehydro-F420-0”. For `N[C@@H](CCC(=O)O)C(=O)O` [L-glutamate], on Mtb-FbiB [2], the “coupled FbiD:FbiA:FbiB assay, LC-MS” value is listed as “Mtb-FbiB was observed to catalyze the addition of L-glutamate residues to dehydro-F420-0”.

In the case of `O=c1nc2n(C[C@H](O)[C@H](O)[C@H](O)CO)c3cc(O)ccc3cc-2c(=O)[nH]1` [Fo, 7,8-didemethyl-8-hydroxy-5-deazariboflavin], the “coupled HPLC-MS assay with FbiD or CofC” value at Mtb-FbiA [3] is “when these enzymes were incubated with PEP, GTP (or ATP), and Fo”.

With `C=C(OP(=O)(O)OC[C@@H](O)[C@@H](O)[C@@H](O)Cn1c2nc(=O)[nH]c(=O)c-2cc2ccc(O)cc21)C(=O)O` [dehydro-F420-0], the “coupled FbiD:FbiA:FbiB assay with Fre/FMNH2, MS/MS” value on Mtb-FbiB [4] is “dehydro-F420-0 is a bona fide metabolic intermediate that can be converted to mature F420 by FbiB”. In addition, the “coupled HPLC assay, MS/MS” value on Mtb-FbiA [5] was “The discovery of dehydro-F420-0 as the product of FbiD:FbiA activity in mycobacteria”. In the case of `C=C(OP(=O)(O)O)C(=O)O` [PEP, phosphoenolpyruvate], the “X-ray crystal structure, soak, 2.18 Å” value at Mtb-FbiD [6] is “We also soaked PEP into pre-formed FbiD crystals to obtain an FbiD-PEP complex”. Besides, the “coupled HPLC-MS assay with Mtb-FbiA” value at Mj-CofC was “both Mtb-FbiD and CofC from Methanocaldococcus jannaschii (Mj-CofC) enzymes use PEP to produce dehydro-F420-0”.
